This note sets out measurements from patent publication US7375083B2, “Pharmaceutical compositions for prevention of overdose or abuse” (Shire LLC, priority 2003, dated 2008).

Series [1] is described as follows: Bolus intravenous bioavailability in rats, LC/MS/MS. Particulars: rat.
The nature of series [2]: Kitchen tests: release of amphetamine by water, acid, base and heat. The settings on record: heated to boiling for 20-60 minutes.
For another series, the system named is Sprague Dawley rats. The experiment in a line: Single-dose oral toxicity. The settings on record: rat; for Observable signs: single oral dose. The class given is in vivo. The method, then:
Three male and three female Sprague Dawley rats per group were given a single oral administration of L-lysine-d-amphetamine at 0.1, 1.0, 10, 60, 100 or 1000 mg/kg (Table 44).
Animals found dead, or sacrificed moribund were necropsied and discarded. A total of one animal/sex/group was necropsied upon scheduled or unscheduled death.

As for `CC(Cc1ccccc1)NC(=O)C(N)CCCCN` [L-lysine-d-amphetamine, 2,6-diaminohexanoic acid-(1-methyl-2-phenylethyl)-amide], the time to peak (Tmax) in series [1] (male, Sprague-Dawley, plasma, iv, […]) came out at 4.98 min. Further, the “Cmax of d-amphetamine relative to d-amphetamine” value in series [1] (bolus intravenous) is reported as “about one-fourth”. For the same compound, in series [2], the “amphetamine detected after treatment: Baking Powder” value was determined as 0%, the “amphetamine detected after treatment: Baking Soda” value turned out to be 0%, the “amphetamine detected after treatment: Tap Water” value stood at 0% and the “amphetamine detected after treatment: Vinegar” value is reported as 0%. For the same compound, the Deaths entry in the series with Sprague Dawley rats (single oral 1000 mg/kg, 7 days) is on record as “only one death occurred out of a group of six animals”. For the same compound, the Observable signs result with Sprague Dawley rats (Groups 1-3 (doses 0.1 to 1000 mg/kg in six groups)) was “no observable signs”. The Observable signs result in the series on Sprague Dawley rats (Groups 4-6 (doses 0.1 to 1000 mg/kg in six groups)) was “increased motor activity within two hours post-dose”.

One may read the Tmax as the time from dosing to the highest level.
